Data from the CheMixHub viscosity set.

Assay: xn = mol fraction of the nth substance listed

Clc1ccccc1 + Cc1ccccc1
Conditions	viscosity [mPa·s]
293.15 K, 101 kPa, x1 = 0.0994	0.6134
293.15 K, 101 kPa, x1 = 0.2021	0.635
293.15 K, 101 kPa, x1 = 0.2979	0.6571
293.15 K, 101 kPa, x1 = 0.3973	0.6775
293.15 K, 101 kPa, x1 = 0.5013	0.7014
293.15 K, 101 kPa, x1 = 0.6023	0.7232
293.15 K, 101 kPa, x1 = 0.7024	0.7433
293.15 K, 101 kPa, x1 = 0.8007	0.7655
293.15 K, 101 kPa, x1 = 0.9047	0.786
293.15 K, 101 kPa, x2 = 0.2	0.751
293.15 K, 101 kPa, x2 = 0.4	0.709
293.15 K, 101 kPa, x2 = 0.6	0.667
293.15 K, 101 kPa, x2 = 0.8	0.626
294.55 K, 101.33 kPa, x1 = 0.2	0.6717
294.55 K, 101.33 kPa, x1 = 0.7	0.7968
294.75 K, 101.33 kPa, x1 = 0.3	0.6949
294.85 K, 101.33 kPa, x1 = 0.1	0.6367
295.05 K, 101.33 kPa, x1 = 0.4	0.7214
298.15 K, 101 kPa, x1 = 0.0994	0.5773
298.15 K, 101 kPa, x1 = 0.2021	0.5971
298.15 K, 101 kPa, x1 = 0.2979	0.6179
298.15 K, 101 kPa, x1 = 0.3973	0.6368
298.15 K, 101 kPa, x1 = 0.5013	0.6596
298.15 K, 101 kPa, x1 = 0.6023	0.6799
298.15 K, 101 kPa, x1 = 0.7024	0.6984
298.15 K, 101 kPa, x1 = 0.8007	0.7195
298.15 K, 101 kPa, x1 = 0.9047	0.7386
298.15 K, 101 kPa, x2 = 0.101	0.7515
298.15 K, 101 kPa, x2 = 0.2035	0.7315
298.15 K, 101 kPa, x2 = 0.243	0.687
298.15 K, 101 kPa, x2 = 0.3026	0.7086
298.15 K, 101 kPa, x2 = 0.4005	0.6929
298.15 K, 101 kPa, x2 = 0.45	0.646
298.15 K, 101 kPa, x2 = 0.5004	0.6721
298.15 K, 101 kPa, x2 = 0.6014	0.6486
298.15 K, 101 kPa, x2 = 0.643	0.608
298.15 K, 101 kPa, x2 = 0.7008	0.6321
298.15 K, 101 kPa, x2 = 0.803	0.577
298.15 K, 101 kPa, x2 = 0.8048	0.6088
298.15 K, 101 kPa, x2 = 0.8995	0.592
303.15 K, 101 kPa, x1 = 0.0994	0.5443
303.15 K, 101 kPa, x1 = 0.2021	0.5628
303.15 K, 101 kPa, x1 = 0.2979	0.5824
303.15 K, 101 kPa, x1 = 0.3973	0.5999
303.15 K, 101 kPa, x1 = 0.5013	0.6212
303.15 K, 101 kPa, x1 = 0.6023	0.6405
303.15 K, 101 kPa, x1 = 0.7024	0.6579
303.15 K, 101 kPa, x1 = 0.8007	0.6779
303.15 K, 101 kPa, x1 = 0.9047	0.6957
303.15 K, 101 kPa, x2 = 0.0961	0.6999
303.15 K, 101 kPa, x2 = 0.101	0.7125
303.15 K, 101 kPa, x2 = 0.193	0.6791
303.15 K, 101 kPa, x2 = 0.2035	0.6925
303.15 K, 101 kPa, x2 = 0.2907	0.6641
303.15 K, 101 kPa, x2 = 0.3026	0.6713
303.15 K, 101 kPa, x2 = 0.3894	0.6454
303.15 K, 101 kPa, x2 = 0.4005	0.6547
303.15 K, 101 kPa, x2 = 0.4889	0.63
303.15 K, 101 kPa, x2 = 0.5004	0.637
303.15 K, 101 kPa, x2 = 0.5893	0.6109
303.15 K, 101 kPa, x2 = 0.6014	0.6131
303.15 K, 101 kPa, x2 = 0.6906	0.5935
303.15 K, 101 kPa, x2 = 0.7008	0.5992
303.15 K, 101 kPa, x2 = 0.7928	0.5753
303.15 K, 101 kPa, x2 = 0.8048	0.577
303.15 K, 101 kPa, x2 = 0.8959	0.5561
303.15 K, 101 kPa, x2 = 0.8995	0.5584
303.25 K, 101.33 kPa, x1 = 0.7	0.7203
303.35 K, 101.33 kPa, x1 = 0.3	0.6272
303.55 K, 101.33 kPa, x1 = 0.1	0.5816
303.75 K, 101.33 kPa, x1 = 0.4	0.6426
304.15 K, 101.33 kPa, x1 = 0.2	0.6008
308.15 K, 101 kPa, x2 = 0.101	0.6704
308.15 K, 101 kPa, x2 = 0.2035	0.6518
308.15 K, 101 kPa, x2 = 0.3026	0.6334
308.15 K, 101 kPa, x2 = 0.4005	0.6181
308.15 K, 101 kPa, x2 = 0.5004	0.5983
308.15 K, 101 kPa, x2 = 0.6014	0.5769
308.15 K, 101 kPa, x2 = 0.7008	0.5641
308.15 K, 101 kPa, x2 = 0.8048	0.5447
308.15 K, 101 kPa, x2 = 0.8995	0.5279
313.05 K, 101.33 kPa, x1 = 0.3	0.5636
313.15 K, 101 kPa, x1 = 0.0994	0.4872
313.15 K, 101 kPa, x1 = 0.2021	0.503
313.15 K, 101 kPa, x1 = 0.2979	0.5205
313.15 K, 101 kPa, x1 = 0.3973	0.536
313.15 K, 101 kPa, x1 = 0.5013	0.5551
313.15 K, 101 kPa, x1 = 0.6023	0.5721
313.15 K, 101 kPa, x1 = 0.7024	0.5874
313.15 K, 101 kPa, x1 = 0.8007	0.6056
313.15 K, 101 kPa, x1 = 0.9047	0.6216
313.15 K, 101 kPa, x2 = 0.0961	0.6302
313.15 K, 101 kPa, x2 = 0.101	0.6317
313.15 K, 101 kPa, x2 = 0.193	0.6128
313.15 K, 101 kPa, x2 = 0.2	0.597
313.15 K, 101 kPa, x2 = 0.2035	0.6152
313.15 K, 101 kPa, x2 = 0.2907	0.5947
313.15 K, 101 kPa, x2 = 0.3026	0.5974
313.15 K, 101 kPa, x2 = 0.3894	0.5789
313.15 K, 101 kPa, x2 = 0.4	0.564
313.15 K, 101 kPa, x2 = 0.4005	0.5833
313.15 K, 101 kPa, x2 = 0.4889	0.5763
313.15 K, 101 kPa, x2 = 0.5004	0.5662
313.15 K, 101 kPa, x2 = 0.5893	0.5475
313.15 K, 101 kPa, x2 = 0.6	0.53
313.15 K, 101 kPa, x2 = 0.6014	0.545
313.15 K, 101 kPa, x2 = 0.6906	0.5414
313.15 K, 101 kPa, x2 = 0.7008	0.5312
313.15 K, 101 kPa, x2 = 0.7928	0.5159
313.15 K, 101 kPa, x2 = 0.8	0.498
313.15 K, 101 kPa, x2 = 0.8048	0.5134
313.15 K, 101 kPa, x2 = 0.8959	0.5005
313.15 K, 101 kPa, x2 = 0.8995	0.4983
313.25 K, 101.33 kPa, x1 = 0.1	0.5257
313.25 K, 101.33 kPa, x1 = 0.4	0.5837
313.35 K, 101.33 kPa, x1 = 0.2	0.5458
313.65 K, 101.33 kPa, x1 = 0.7	0.6385
322.55 K, 101.33 kPa, x1 = 0.3	0.5132
322.75 K, 101.33 kPa, x1 = 0.1	0.478
322.85 K, 101.33 kPa, x1 = 0.2	0.4964
323.15 K, 101 kPa, x2 = 0.0961	0.5575
323.15 K, 101 kPa, x2 = 0.193	0.5432
323.15 K, 101 kPa, x2 = 0.2907	0.531
323.15 K, 101 kPa, x2 = 0.3894	0.5111
323.15 K, 101 kPa, x2 = 0.4889	0.5008
323.15 K, 101 kPa, x2 = 0.5893	0.4829
323.15 K, 101 kPa, x2 = 0.6906	0.4715
323.15 K, 101 kPa, x2 = 0.7928	0.4539
323.15 K, 101 kPa, x2 = 0.8959	0.4396
323.15 K, 101.33 kPa, x1 = 0.4	0.5282
